# Measurements taken from patent publication US8183263B2 (priority 2007, dated 2012).
# Tested on: HCV replicon
# Assay: HCV replicon replication assay (NPT level by captured ELISA)
# Format: cell-based
# Settings: Hepatitis C virus, 72 h; Huh-7 HCV replicon-containing cells, three days incubation; read-out: Activity (inhibition of HCV replicon replication)
# Method in brief: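 Huh-7 cells carrying HCV subgenomic replicon (NS3–NS5B, neo reporter) treated 3 days at 37 °C with 6 concentrations from 10 to 0.03 micromolar in G418-free medium, equal DMSO across wells. Replication measured on day four as NPTII level by in-cell captured ELISA on fixed cells; interferon alpha as positive control.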
row,Compound,EC50
1,"CCCCCCCCOc1ccc(Nc2nc(-c3cccnc3)cs2)cc1C(=O)O [Cmp 155, 2-(octyloxy)-5-(4-(pyridin-3-yl)thiazol-2-ylamino)benzoic acid]",> 10000 nM
2,"CCCCCCCCOc1ccc(Nc2nc(-c3cnc(OC)nc3)c(CN(C)C)s2)cc1C(F)(F)F [Cmp 121, 5-((dimethylamino)methyl)-4-(2-methoxypyrimidin-5-yl)-N-(4-(octyloxy)-3-(trifluoromethyl)phenyl)thiazol-2-amine]",1000 to 10000 nM
3,"COc1ncc(-c2csc(Nc3ccc(Oc4ccc(C#N)cc4)c(C(F)(F)F)c3)n2)cn1 [Cmp 52, 4-(4-(4-(2-methoxypyrimidin-5-yl)thiazol-2-ylamino)-2-(trifluoromethyl)phenoxy)benzonitrile]",< 1000 nM
4,"COc1ncc(-c2nc(Nc3ccc(C)c(OCC4CCCCC4)c3)sc2F)cn1 [Cmp 63, N-(3-(cyclohexylmethoxy)-4-methylphenyl)-5-fluoro-4-(2-methoxypyrimidin-5-yl)thiazol-2-amine]",< 1000 nM
5,"Fc1sc(Nc2ccc(Oc3ccccc3)c(C(F)(F)F)c2)nc1-c1cccnc1 [Cmp 70, 5-fluoro-N-(4-phenoxy-3-(trifluoromethyl)phenyl)-4-(pyridin-3-yl)thiazol-2-amine]",< 1000 nM
